Experimental data published in US9624167B2, “N-(4-hydroxy-4-methyl-cyclohexyl)-4-phenyl-benzenesulfonamides and N-(4-hydroxy-4-methyl-cyclohexyl)-4-(2-pyridyl)benzenesulfonamides and their therapeutic use” (PIMCO 2664 LIMITED, priority 2013, dated 2017).

Legend:
Assay type in all cases: cell-based
J774 macrophages = assay: Resazurin Macrophage J774 Viability Assay; details: Mus musculus, 12 point concentration range 10 μM to 0.5 nM, n = 4 replicates, mean of 3 independent experiments, 72 hour incubation, read-out: IC50 (2)
[1] = tested on: GADD45a-GFP reporter in TK6 human lymphoblastoid cell line; assay: GreenScreen HC genotoxicity (GADD45a-GFP reporter); details: GreenScreen HC, positive or negative
Excerpt: (§1) GreenScreen HC is a mammalian cell-based assay for measuring the genotoxicity and cytotoxicity of chemical compounds and mixtures.
The term genotoxic is used to describe substances that are capable of causing damage to genetic material (DNA) within a cell, which may ultimately have mutagenic, carcinogenic or teratogenic effects in humans.
The GreenScreen assay reports genotoxic stress as an increase in fluorescence from a genetically modified derivative of the p53-competent TK6 human lymphoblastoid cell line. In the modified cells, regulatory DNA sequences which promote the transcription of the GADD45a gene control the expression of Green Fluorescent Protein (GFP). GADD45a has a central role in genomic integrity, and genotoxic stress induces its transcription. Exposure to a genotoxic compound therefore increases the expression of GFP, which is observed as an increase in fluorescence and which is monitored by fluorescent detection using a plate reader or flow cytometer. In the GreenScreen HC assay fluorescence is normalised to the optical absorbance measurement to correct for variation in cell yield caused by loss of cell viability or cytotoxicity. The statistically defined threshold for a positive result in the GreenScreen HC assay is 1.5, i.e., 50% induction over and above the baseline for the vehicle-treated control.
(§2) A dilution series of each test compound is generated in parallel in a 96-well, black microplate with an optically clear base. A standard genotoxic compound (methyl methanesulfonate, MMS) is added as an intra-plate quality control check. The plates are analysed at 24 hour and 48 hour time points using a microplate reader, which provides measurements of light absorbance and fluorescence for cells and solutions in the microplates wells.
(§3) In addition to measurements of cell viability and genotoxicity described above, the GreenScreen assay incorporates an assessment of the effects of metabolic activation in the assay, the “GreenScreen HC S9 assay”. To accomplish this, the cells are incubated both in the presence of and absence of the post-mitochondrial supernatant liver extract (known as “S9”). S9 is routinely used in genetic toxicology to supplement the test cells with mammalian phase I metabolism. To assess metabolic activation, compounds are incubated with the TK6 strain in the presence of 1% v/v S9 fraction mix for 3 hours with a subsequent 45 hour recovery time. After the recovery period, the GFP fluorescence signal and cell viability (assessed by propidium iodide uptake) are measured using a flow cytometer. Cyclophosphamide, a commonly used control in genotoxicity studies utilising metabolic activation, is used as the positive control in the assay. In the GreenScreen HC S9 assay, genotoxicity is evaluated by induction in GFP expression quantified using the mean sample fluorescence and cytotoxicity using the propidium iodide uptake assay described above. The statistically defined threshold for a positive genotoxicity result is 1.3, i.e. 30% induction over and above the baseline for the vehicle-treated control and the result is reported as positive or negative. Cytotoxic compounds are those that show an observed decrease in relative population survival below a significance threshold set at 90% compared to vehicle-treated control, at one or more test concentrations.
(§4) Stably transfected reporter cell lines were derived from the p53-competent human lymphoblastoid TK6 cell line. The reporter cell line carries an episomally replicating plasmid bearing the upstream promoter region and other regulatory sequences of the human GADD45a gene linked to a human optimised Green Fluorescent Protein (GFP) gene. The control cell line carries an identical plasmid except for the removal of 4 base pairs at the start of the EGFP gene, such that GFP is not produced. […]

[2] = tested on: TK6 human lymphoblastoid cell line; assay: GreenScreen HC cytotoxicity (propidium iodide uptake); details: for Cytotoxicity, LEC, 48 h, −S9: absence of S9 fraction; for Cytotoxicity, LEC, 48 h, +S9: presence of S9 fraction; for Cytotoxicity, LEC, 24 h: lowest effective concentration for loss of cell viability
Method: as §1
Cytotoxicity is measured in the GreenScreen assay alongside genotoxicity and the results of the cytotoxicity assessment are used to normalise the genotoxicity measurements as described above.
In the GreenScreen HC assay, cell viability is assessed using a propidium iodide uptake assay. Propidium iodide is an intercalating agent and a fluorescent molecule that can be used to stain cells. It is commonly used to quantitatively assess DNA content to evaluate cell viability or DNA content in cell cycle analysis and can be used to differentiate necrotic, apoptotic and normal cells (see, e.g., Dengler et al., 1995, Anticancer Drugs, Vol. 6, No. 4, pp. 522-532). Exposure to a cytotoxic compound increases the uptake of propidium iodide, which is monitored by optical absorbance and is proportional to […]. Cytotoxic compounds are those that show an observed decrease in relative population survival below a significance threshold set at 90% compared to vehicle-treated control, at one or more test concentrations.
as §2, §3
as §4, with “produced. Both plasmids also carry a gene conferring resistance to hygromycin B to the cell line, allowing continued selection for plasmid presence (200 μg/mL hygromycin B; Invitrogen Corporation, Carlsbad, Calif.).” for “produced.”

## C[C@]1(O)CC[C@@H](NS(=O)(=O)c2ccc(-c3ncc(F)cc3F)cc2)CC1 [HMC-N-02-B, 4-(3,5-Difluoropyridin-2-yl)-N-((1s,4s)-4-hydroxy-4-methylcyclohexyl)benzenesulfonamide]
J774 macrophages
  IC50: 360 nM
[1]
  Genotoxicity: Negative
[2]
  Cytotoxicity, LEC, 48 h, −S9: 0.01 µM
  Cytotoxicity, LEC, 48 h, +S9: 10.2 µM
  Cytotoxicity, LEC, 24 h: 0.04 µM

## C[C@]1(O)CC[C@H](NS(=O)(=O)c2ccc(-c3ncc(Cl)cc3Cl)cc2)CC1 [HMC-N-03-A, 4-(3,5-Dichloropyridin-2-yl)-N-((1r,4r)-4-hydroxy-4-methylcyclohexyl)benzenesulfonamide]
J774 macrophages
  IC50: 620 nM
[1]
  Genotoxicity: Negative
[2]
  Cytotoxicity, LEC, 48 h, −S9: 0.24 µM
  Cytotoxicity, LEC, 48 h, +S9: 30 µM
  Cytotoxicity, LEC, 24 h: 0.94 µM
